From patent publication US9776987B2, “Amide derivatives for GPR119 agonist” (CHONG KUN DANG PHARMACEUTICAL CORP., priority 2013, dated 2017) come the findings set out here.

Converted amounts (≈) assume the structure as drawn. Where two headings read alike, the source gives them in different places.

In series [1] the target is T1, human GPR119 receptor (Homo sapiens, UniProt Q8TDV5).
T1 construct: host or cells: GeneBLAzer T-Rex GPR 119 CHO-K1 DA cells (CHO-K1)
T1 sequence (Q8TDV5 1-335): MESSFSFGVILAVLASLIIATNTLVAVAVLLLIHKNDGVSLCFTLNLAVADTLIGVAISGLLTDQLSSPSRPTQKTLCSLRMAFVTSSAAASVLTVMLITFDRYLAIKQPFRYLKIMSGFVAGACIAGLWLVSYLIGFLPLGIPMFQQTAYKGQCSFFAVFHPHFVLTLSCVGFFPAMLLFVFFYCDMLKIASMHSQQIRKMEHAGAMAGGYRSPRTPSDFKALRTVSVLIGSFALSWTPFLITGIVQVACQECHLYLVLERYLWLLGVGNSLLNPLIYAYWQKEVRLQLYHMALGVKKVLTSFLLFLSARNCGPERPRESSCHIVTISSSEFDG
The experiment in a line: Activity test for human GPR119 receptor (GeneBLAzer T-Rex GPR 119 CHO-K1 DA cells). It is filed as cell-based. The conditions noted are these: for EC50: human GPR119 receptor expressing CHO-K1 cells, 5 hours treatment, read-out: hGPR119 EC50; for activity for human GPR119 receptor (in words): judgement on the EC50 values of Table 11. As to the method:
1. Human GPR119 Receptor Cell
As a human GPR119 receptor expression cell for this test, the cell line “GeneBLAzer™ T-Rex GPR 119 CHO-K1 DA cells” that is commercially available from Invitrogen, was used. The cell was incubated in the DMEM media containing 1% dialyzed fetal bovine serum etc. The cell incubator was kept at constant temperature and constant humidity of 37° C., 5% CO2.
2. Activity Test for Human GPR119 Receptor
The human GPR119 receptor expressing cell was used to this test. Each of test compounds was added to be final concentrations of 0.1, 1, 10 μM in 96 well and tested in duplicate. A fixed amount of cell was added to each well of 96 well separately, and then treated with the test compound for 5 hours. After treatment of color development agent for 2 hours, the fluorescence value was determined with plate reader. To the luminous wavelength of control well, which was not treated with the sample, but in which only a vehicle […] was contained, the ratio of the luminous wavelength of test well, which was treated with the sample, was calculated, and then converted to obtain EC50 value.
3. Statistical Processing
All the results were expressed as mean±SD, and each test groups and the control group were compared using student's t-test to adjudge the effects of each test groups.

Series [2] deals with Male C57/6J Jms mice. The experiment in a line: Glucose tolerance test in normal mouse. Type of series: in vivo. As to the method:
1. Method of Glucose Tolerance Test
Male C57/6J Jms mice of 6-7 weeks of age were fasted for 16 hours before the start of glucose tolerance test. […]
Before compound administration, that is, at 0 hour, whole blood glucose level was determined using a Glucometer (ACCU-CHEK, Roche). At 30 minutes after compound administration, whole blood glucose level was determined once again, and 20% glucose (2 g/kg/10 mL) was administered orally. Whole blood glucose level was determined at 20, 40, 60, 80, and 120 minutes after 20% glucose administration. Whole blood glucose level vs. Time was graphicalized. Area under the curve (AUC) of whole blood glucose level was obtained using GraphPad Prism 4.0. The effect of glucose tolerance was adjudged with the corrected area under the curve (cAUC), on which the base value of glucose area under the curve was excluded.

The nature of series [3]: Solubility test of GPR 119 agonist compounds (Nephelostar). The conditions noted are these: aqueous with cosolvent or surfactant or cyclodextrin, kinetic from dmso stock. Type of series: physicochemical. On the procedure:
1. Method of Solubility Test
Each test compounds were dissolved in 5% DMSO aqueous solution as a solvent at several concentrations. When a laser was irradiated to the solution, the particles, which are not dissolved in the solvent, scatter the light. The level of the scattered light is dependent to the number of the particles, so the solubility of the test compound in the solution can be determined using the relationship. As the test equipment, Nephelostar was used.

The mark [4] stands for this setting: 10 mg/kg, whole blood glucose AUC after oral glucose 2 g/kg, 10 mg/kg.
Setting [5] is: pH 2, 5% DMSO aqueous solution, read-out: Solubility pH 2.
The mark [6] stands for this setting: pH 4, 5% DMSO aqueous solution, read-out: Solubility pH 4.
Where [7] appears, read: pH 6, 5% DMSO aqueous solution, read-out: Solubility pH 6.
Setting [8] is: pH 8, 5% DMSO aqueous solution, read-out: Solubility pH 8.

On to `NC(=O)[C@@H]1C[C@@H](O)CN1C(=O)c1ccc(-c2ccc(OCC3CCN(CC4(C(F)(F)F)CCC4)CC3)cc2)cc1` [Compound 1199, (2S,4R)-4-hydroxy-1-(4′-((1-((1-(trifluoromethyl)cyclobutyl)methyl)piperidin-4-yl)methoxy)biphenylcarbonyl)pyrrolidin-2-carboxamide], for which, in series [1], the EC50 stood at 12 nM. Also, the “Decrease % of AUC at 10 mg/kg” value in series [2] (setting [4]) was found to be 31%.
With `CC(C)(CN1CCC(COc2ccc(-c3ccc(C(=O)N4C[C@H](O)C[C@H]4C(N)=O)c(F)c3)cn2)CC1)C(F)(F)F` [Compound 1208, (2S,4R)-1-(2-fluoro-4-(6-((1-(3,3,3-trifluoro-2,2-dimethylpropyl)piperidin-4-yl)methoxy)pyridin-3-yl)benzoyl)-4-hydroxypyrrolidin-2-carboxamide], in series [1], the EC50 worked out at 3 nM and the “activity for human GPR119 receptor (in words)” value (“activity” for short) is given as “excellent activity”. For the same compound, in series [2] (setting [4]), the “Decrease % of AUC at 10 mg/kg” value came out at 38%.
For the compound `CC(C)(CN1CCC(COc2ccc(-c3ccc(C(=O)N4C[C@H](O)C[C@H]4C(N)=O)c(F)c3)c(F)c2)CC1)C(F)(F)F` [Compound 1240, (2S,4R)-1-(2′,3-difluoro-4′-((1-(3,3,3-trifluoro-2,2-dimethylpropyl)piperidin-4-yl)methoxy)biphenylcarbonyl)-4-hydroxypyrrolidin-2-carboxamide], the EC50 in series [1] was found to be 0.1 nM. Also, the “Decrease % of AUC at 10 mg/kg” value in series [2] (setting [4]) is reported as 35%.
Take `C[C@@]1(C(N)=O)C[C@@H](O)CN1C(=O)c1ccc(-c2ccc(OCC3CCN(CC4(C(F)(F)F)CCC4)CC3)cn2)cc1F` [Compound 1290, (2S,4R)-1-(2-fluoro-4-(5-((1-((1-(trifluoromethyl)cyclobutyl)methyl)piperidin-4-yl)methoxy)pyridin-2-yl)benzoyl)-4-hydroxy-2-methylpyrrolidin-2-carboxamide]: the EC50 in series [1] came to 6 nM. Also, the “activity” value in series [1] was “excellent activity”. Further, the solubility in series [3] (setting [5]) was over 296 µg/mL; in series [3] (setting [6]), over 296 µg/mL; in series [3] (setting [7]), over 296 µg/mL; in series [3] (setting [8]) it was 102 µg/mL (≈ 172 µM).
Take `CCC(F)(CC)CN1CCC(COc2ccc(-c3ccc(C(=O)N4C[C@H](O)C[C@@]4(C)C(N)=O)cc3F)nc2)CC1` [Compound 1292, (2S,4R)-1-(4-(5-((1-(2-ethyl-2-fluorobutyl)piperidin-4-yl)methoxy)pyridin-2-yl)-3-fluorobenzoyl)-4-hydroxy-2-methylpyrrolidin-2-carboxamide]: in series [1], the EC50 came to 12 nM. The solubility in series [3] (setting [5]), in series [3] (setting [6]), in series [3] (setting [7]) and in series [3] (setting [8]) was over 279 µg/mL in each case.
On to `CC(C)(CN1CCC(COc2ccc(-c3ccc(C(=O)N4C[C@H](O)C[C@@]4(C)C(N)=O)c(F)c3)nc2)CC1)C(F)(F)F` [Compound 1294, (2S,4R)-1-(2-fluoro-4-(5-((1-(3,3,3-trifluoro-2,2-dimethylpropyl)piperidin-4-yl)methoxy)pyridin-2-yl)benzoyl)-4-hydroxy-2-methylpyrrolidin-2-carboxamide], for which, in series [1], the EC50 amounted to 19 nM. Also, in series [1], the “activity” value was “excellent activity”. The solubility was over 290 µg/mL in series [3] (setting [5]), over 290 µg/mL in series [3] (setting [6]), 203 µg/mL (≈ 350 µM) in series [3] (setting [7]) and 52 µg/mL (≈ 89.6 µM) in series [3] (setting [8]).
As to `CC(C)(CN1CCC(COc2ccc(-c3ccc(C(=O)N4C[C@H](O)C[C@H]4C(N)=O)cc3)nc2)CC1)C(F)(F)F` [Compound 1322, (2S,4R)-4-hydroxy-1-(4-(5-((1-(3,3,3-trifluoro-2,2-dimethylpropyl)piperidin-4-yl)methoxy)pyridin-2-yl)benzoyl)pyrrolidin-2-carboxamide], the EC50 in series [1] was 6 nM. The “activity” value in series [1] is listed as “excellent activity”. In addition, the solubility in series [3] (setting [5]) was over 274 µg/mL; in series [3] (setting [6]), over 274 µg/mL; in series [3] (setting [7]), over 274 µg/mL; in series [3] (setting [8]), 89 µg/mL (≈ 162 µM).
Turning to `CC(C)(CN1CCC(COc2ccc(-c3ccc(C(=O)N4C[C@H](O)C[C@H]4C(N)=O)cc3F)nc2)CC1)C(F)(F)F` [Compound 1323, (2S,4R)-1-(3-fluoro-4-(5-((1-(3,3,3-trifluoro-2,2-dimethylpropyl)piperidin-4-yl)methoxy)pyridin-2-yl)benzoyl)-4-hydroxypyrrolidin-2-carboxamide], the EC50 in series [1] turned out to be 4 nM. In addition, the “activity” value in series [1] is given as “excellent activity”. Besides, the solubility was over 283 µg/mL in series [3] (setting [5]), over 283 µg/mL in series [3] (setting [6]), 355 µg/mL (≈ 627 µM) in series [3] (setting [7]) and 88 µg/mL (≈ 155 µM) in series [3] (setting [8]).
On to `C[C@@]1(C(N)=O)C[C@@H](O)CN1C(=O)c1ccc(-c2ccc(OCC3CCN(CC4(C(F)(F)F)CCC4)CC3)nc2)c(F)c1` [Compound 1325, (2S,4R)-1-(3-fluoro-4-(6-((1-((1-(trifluoromethyl)cyclobutyl)methyl)piperidin-4-yl)methoxy)pyridin-3-yl)benzoyl)-4-hydroxy-2-methylpyrrolidin-2-carboxamide], for which the EC50 in series [1] was found to be 14 nM. Moreover, the “activity” value in series [1] is listed as “excellent activity”. Besides, the solubility in series [3] (setting [5]) was over 296 µg/mL; in series [3] (setting [6]), over 296 µg/mL; in series [3] (setting [7]), over 296 µg/mL; in series [3] (setting [8]) it was 114 µg/mL (≈ 192 µM).
For the compound `C[C@@]1(C(N)=O)C[C@@H](O)CN1C(=O)c1ccc(-c2ccc(OCC3CCN(CC4(C(F)(F)F)CCC4)CC3)cn2)c(F)c1` [Compound 1329, (2S,4R)-1-(3-fluoro-4-(5-((1-((1-(trifluoromethyl)cyclobutyl)methyl)piperidin-4-yl)methoxy)pyridin-2-yl)benzoyl)-4-hydroxy-2-methylpyrrolidin-2-carboxamide], the EC50 in series [1] is 10 nM. For the same compound, in series [1], the “activity” value is reported as “excellent activity”. In addition, the solubility in series [3] (setting [5]) was over 296 µg/mL; in series [3] (setting [6]), over 296 µg/mL; in series [3] (setting [7]), over 296 µg/mL; in series [3] (setting [8]), 112 µg/mL (≈ 189 µM).
Consider `CC(C)c1noc(N2CCC(COc3ccc(-c4ccc(S(C)(=O)=O)cc4)nc3)CC2)n1` [GSK-1292263, reference compound], for which the “Decrease % of AUC at 10 mg/kg” value in series [2] (10 mg/kg, whole blood glucose AUC after oral glucose 2 g/kg) is on record as 10~20%.

Broadly, the EC50 is the concentration that produces a half-maximal response. What is called solubility is the concentration that dissolves in the medium under given conditions.
